Experiment [1] addresses T1, Hen egg white lysozyme (HEWL) (Gallus gallus, UniProt P00698).
T1 construct: gene LYZ; native egg-white protein, commercial (Sigma), dialysed; mature chain, 129 residues, monomer, four disulfides
The experiment can be described thus: intrinsic Trp fluorescence quenching, modified Stern-Volmer. The format is binding. The settings on record: pH 7.4, 20 mM sodium phosphate, 25°C, 5 μM HEWL, excitation 295 nm, double-log. An excerpt:
intrinsic Trp fluorescence quenching, modified Stern-Volmer on Hen egg white lysozyme (HEWL)

For experiment [2], the target named is T1, Hen egg white lysozyme (HEWL). The experiment can be described thus: heat-induced aggregation, turbidity at […] nm, single exponential fit. The format is biochemical. The following applies: pH 7.4, 65°C, 120 h, 10 μM HEWL, stirring; inhibition of aggregation.

T1 sequence (P00698 19-147): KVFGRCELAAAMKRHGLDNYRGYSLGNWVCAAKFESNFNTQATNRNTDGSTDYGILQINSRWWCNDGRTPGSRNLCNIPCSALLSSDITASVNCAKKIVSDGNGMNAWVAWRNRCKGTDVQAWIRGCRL

As for `N[C@@H]1CONC1=O` [D-cycloserine, D-4-amino-3-isoxazolidone], in experiment [1] (n = 1.1, unreliable (text b59 prints another value)), the binding constant result is recorded as “(2.70±0.18)×10^3 M^-1”. Further, in experiment [2], the Λ was 470 M⁻¹.

Turning to `NC(=O)c1cnccn1` [pyrazinamide], the binding constant result in experiment [1] (n = 1.2) is on record as “(2.45±0.19)×10^4 M^-1”. Moreover, the Λ in experiment [2] turned out to be 1500 M⁻¹.

(Values after PMC4552381, “Unraveling Comparative Anti-Amyloidogenic Behavior of Pyrazinamide and D-Cycloserine: A Mechanistic Biophysical Insight” (PLoS ONE, 2015).)
